US11360080B2, “AhR-ROR-γt complex as a biomarker and therapeutic target for autoimmune disease and IL-17A-associated disease” (NATIONAL HEALTH RESEARCH INSTITUTES, priority 2018, dated 2022)

Legend:
[1] = target: T1, AhR-RORγt complex (UniProt P35869+P51450); test: FRET assay of HEK293T cells co-transfected with CFP-AhR, YFP-RORγt and IKKβ plasmids; format: cell-based; conditions: IKKβ
T1 construct: expressed in transfected cells; host or cells: HEK293T
Procedure: (A) Luciferase activity of NF-κB-driven reporter assays in stable GLK-transfected CHO-K1 cells that were treated with or without the GLK inhibitor C1 (verteporfin) under the indicated concentration. The fold changes are presented relative to the value of vector control. (B) Recombinant proteins of GLK kinase domain plus recombinant proteins of GST-tagged kinase-dead PKCθ (K409W) were subjected to in vitro kinase assays in the presence or absence of the GLK inhibitor C1 (verteporfin). Means±SD of are shown. *, P value<0.05; **, P value<0.01 (two-tailed Student's t-test). (C) The AhR-RORγt complex was inhibited by the GLK inhibitor. […] (D) Quantification of the PLA signals of (C). […]
FRET signal in live cells was detected by EnVision 2104 Multilabel Plate Reader (Perkin Elmer). The reaction was excited by light passing through a 430-nm filter (with 8 nm bandwidth), and the intensity of emitted fluorescence passing through a 530-nm filter (with 8 nm bandwidth) was recorded. If the protein-protein pair is in close proximity (1-10 nm), a 530-nm signal will be detected. The FRET efficiency was calculated using the following equation: FRET efficiency=((FRET−CFP×a−YFP×b)/YFP)×100%, where FRET, CFP, and YFP correspond to the fluorescent intensities acquired through FRET, CFP, and YFP filter sets, respectively; a and b are the donor emission and acceptor excitation crosstalk ratios, respectively. […]

[2] = test system: Lck-GLK Tg mice; test: Treatment of Lck-GLK Tg mice, serum ELISA; format: in vivo, mouse; conditions: 0.556 nmole/g i.v. every 3 days for 30 days
Text: (A to C) Effect of the GLK inhibitor C1 (verteporfin) administration (0.556 nmole/g every 3 days for 30 days) on serum IL-17A and autoantibodies in Lck-GLK Tg mice. (B) ELISA of indicated serum cytokines in Lck-GLK Tg mice treated with C1 (verteporfin) or PBS. (C) ELISA of serum autoantibodies in Lck-GLK Tg mice treated with C1 (verteporfin) or PBS. Means±SEM are shown. (D) Experimental autoimmune encephalomyelitis (EAE) induction in wild-type mice treated with PBS, or the GLK inhibitor C1 (verteporfin) and C2. Clinical scores are presented on a scale of 1 to 5 (left panel). ELISA of IL-17A in the sera from MOG-immunized mice at day 16 (right panel). (E) Collagen-induced arthritis (CIA) induction in wild-type mice treated with the GLK inhibitor C1 (verteporfin) or PBS. Clinical scores are presented on a scale of 1 to 16 (left panel). ELISA of IL-17A in the sera from collagen-immunized mice at day 28. […]
Serum levels of IL-1β, IL-4, IL-6, IL-12, IL-17F, IL-21, IL-22, IL-23, IFN-γ, TNF-α, and TGF-β were analyzed by individual ELISA kits purchased from eBioscience. The IL-17A levels were determined using an ELISA kit from Biolegend. The serum levels of anti-nuclear antibodies (ANA), anti-dsDNA antibody, and rheumatoid factor (RF) were analyzed by ELISA kits purchased from Alpha Diagnostic International. […]

[3] = test system: CIA in wild-type mice; test: Collagen-induced arthritis (CIA) induction in wild-type mice; format: in vivo, mouse
Text: (A to C) Effect of the GLK inhibitor C1 (verteporfin) administration (0.556 nmole/g every 3 days for 30 days) on serum IL-17A and autoantibodies in Lck-GLK Tg mice. (B) ELISA of indicated serum cytokines in Lck-GLK Tg mice treated with C1 (verteporfin) or PBS. (C) ELISA of serum autoantibodies in Lck-GLK Tg mice treated with C1 (verteporfin) or PBS. Means±SEM are shown. (D) Experimental autoimmune encephalomyelitis (EAE) induction in wild-type mice treated with PBS, or the GLK inhibitor C1 (verteporfin) and C2. Clinical scores are presented on a scale of 1 to 5 (left panel). ELISA of IL-17A in the sera from MOG-immunized mice at day 16 (right panel). (E) Collagen-induced arthritis (CIA) induction in wild-type mice treated with the GLK inhibitor C1 (verteporfin) or PBS. Clinical scores are presented on a scale of 1 to 16 (left panel). ELISA of IL-17A in the sera from collagen-immunized mice at day 28. Means±SEM are shown. *, P value<0.05; **, P value<0.01; ***, P value<0.001 (two-tailed Student's […]). C1 denotes verteporfin; C2 denotes alexidine dihydrochloride.
Moreover, overproduction of autoantibodies in Lck-GLK Tg mice were also abolished by C1 (verteporfin) treatment (FIG. 10C). […] To further verify that the GLK inhibitors also works in IL-17A-mediated animal models, we challenged wild-type mice with C1 (verteporfin) or C2 (alexidine dihydrochloride) during EAE and CIA induction.

[4] = test system: splenic T cells (Th17 differentiation); test: In vitro Th17 differentiation, flow cytometry of IL-17A-producing CD4+ T cells; format: cell-based, mouse; conditions: 1 or 5 μM during differentiation
Procedure: (§1) (A) Flow cytometry of IL-17A-producing CD4^+ T cells. Splenic T cells were co-treated with verteporfin (C1) (1 or 5 μM) during Th17 differentiation in vitro. (B) Flow cytometry of IL-17A-producing CD4^+ T cells. Murine in vitro differentiated Th17 cells were stimulated with PMA plus ionomycin and co-treated with verteporfin (C1) (1 or 5 μM) for 30 min. (C) Flow cytometry of Foxp3-producing […] T cells. Splenic T cells were co-treated with verteporfin (C1) (5 μM) during Treg differentiation in vitro. (D) Flow cytometry of Foxp3-producing CD4^+ T cells, which were differentiated from CD4^+ T cells of wild-type or Lck-GLK transgenic mice.
CD4^+ splenic T cells were purified from mice. Cells (5×10^5) were cultured in 1 ml RPMI medium in 48-well plates coated with anti-CD3 (2 μg/ml) and anti-CD28 (3 μg/ml) antibodies. For Th17 differentiation, splenic CD4^+ cells were cultured in the medium containing IL-23 recombinant proteins (50 ng/ml, R&D), IL-6 recombinant proteins (20 ng/ml, R&D), TGF-β recombinant proteins (5 ng/ml, R&D), anti-IL-4 (5 μg/ml, Biolegend), and anti-IFN-γ (5 μg/ml, Biolegend) antibodies. For Th1 differentiation, CD4^+ splenic cells were cultured in the medium containing IL-12 recombinant proteins (5 ng/ml, R&D) and anti-IL-4 antibodies (1 μg/ml, Biolegend).

[5] = test system: in vitro differentiated Th17 cells; test: IL-17A production of in vitro differentiated Th17 cells, flow cytometry; format: cell-based, mouse; conditions: PMA plus ionomycin, 1 or 5 μM for 30 min
Procedure: as §1

[6] = test system: splenic T cells (Treg differentiation); test: In vitro Treg differentiation, flow cytometry of Foxp3-producing CD4+ T cells; format: cell-based, mouse; conditions: 5 μM
Procedure: as §1

T1 sequence (P35869 11-848): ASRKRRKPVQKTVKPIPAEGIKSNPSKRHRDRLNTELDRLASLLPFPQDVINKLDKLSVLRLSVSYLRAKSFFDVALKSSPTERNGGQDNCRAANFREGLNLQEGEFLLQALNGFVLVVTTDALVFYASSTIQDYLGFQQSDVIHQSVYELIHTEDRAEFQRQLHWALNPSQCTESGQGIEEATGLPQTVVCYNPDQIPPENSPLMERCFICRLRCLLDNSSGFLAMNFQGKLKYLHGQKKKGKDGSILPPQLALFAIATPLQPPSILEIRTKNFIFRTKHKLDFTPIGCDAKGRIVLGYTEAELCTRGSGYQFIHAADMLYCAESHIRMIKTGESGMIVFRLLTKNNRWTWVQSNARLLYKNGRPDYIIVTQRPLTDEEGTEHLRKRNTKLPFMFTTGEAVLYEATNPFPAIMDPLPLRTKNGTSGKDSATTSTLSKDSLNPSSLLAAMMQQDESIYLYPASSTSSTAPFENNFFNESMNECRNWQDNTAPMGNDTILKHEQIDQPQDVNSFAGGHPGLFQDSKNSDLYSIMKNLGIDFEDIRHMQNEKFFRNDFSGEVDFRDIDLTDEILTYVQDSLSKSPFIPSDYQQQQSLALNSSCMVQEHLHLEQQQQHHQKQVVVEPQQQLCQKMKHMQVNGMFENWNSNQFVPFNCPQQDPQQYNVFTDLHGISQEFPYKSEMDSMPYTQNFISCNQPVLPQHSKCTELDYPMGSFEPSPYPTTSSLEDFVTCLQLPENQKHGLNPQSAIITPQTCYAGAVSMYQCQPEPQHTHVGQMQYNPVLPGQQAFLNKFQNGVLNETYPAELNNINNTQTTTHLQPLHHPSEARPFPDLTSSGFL
T1 sequence (P51450 1-495 isoform P51450-2 T331K): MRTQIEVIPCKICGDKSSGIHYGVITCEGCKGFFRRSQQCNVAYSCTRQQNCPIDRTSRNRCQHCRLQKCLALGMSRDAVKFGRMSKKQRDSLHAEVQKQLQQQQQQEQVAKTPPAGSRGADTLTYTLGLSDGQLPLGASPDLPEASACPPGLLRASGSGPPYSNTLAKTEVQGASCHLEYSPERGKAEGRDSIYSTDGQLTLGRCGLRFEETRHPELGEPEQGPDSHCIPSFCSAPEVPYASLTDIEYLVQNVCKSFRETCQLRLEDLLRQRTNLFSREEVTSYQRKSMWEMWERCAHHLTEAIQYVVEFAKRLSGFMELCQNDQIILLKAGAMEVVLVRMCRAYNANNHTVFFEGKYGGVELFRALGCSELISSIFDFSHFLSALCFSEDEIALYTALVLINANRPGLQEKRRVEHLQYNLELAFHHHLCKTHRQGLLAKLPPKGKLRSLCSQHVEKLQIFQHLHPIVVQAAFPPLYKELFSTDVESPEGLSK

FRET signals AhR-RORγt [1]: inhibited
Structure (SMILES): C=Cc1c(C)c2cc3nc(cc4[nH]c(cc5nc(cc1[nH]2)C(C)=C5CCC(=O)O)c(CCC(=O)OC)c4C)[C@@]1(C)C3=CC=C(C(=O)OC)[C@H]1C(=O)OC [C1, verteporfin]
overproduction of autoantibodies [2]: abolished
serum IL-17A levels ([2]; vs PBS): significantly decreased
serum IL-17A levels in CIA ([3]; day 28): inhibited
disease severity (clinical score) in CIA ([3]; mouse, in vivo): inhibited
Th17 differentiation [4]: inhibited
IL-17A production from in vitro differentiated Th17 cells [5]: inhibited
in vitro Treg (Foxp3-expressing CD4+ T cell) differentiation [6]: enhanced
